Reference: publication PMC12703733, “Probing Guanidino Pendant or Bridged Groups in Cyclic Antimicrobial Peptides Derived from Temporin L: A Strategy to Improve Efficacy against Gram-Negative Bacteria” (Journal of Medicinal Chemistry, 2025)
≈ marks a conversion by molar mass, not a printed value. Bridge positions count the residues as written; N and C are the ends. Square brackets hold non-standard residues; d marks the D form. Ends that are not written are not given here. Peptide text beside a SMILES is read from it. Phe(4-guanidino) = N=C(N)Nc1ccc(C[C@H](N)C(=O)O)cc1

Tests used:
[1] = tested on: Gram-positive bacteria tested; experiment: MIC panel, Gram-positive strains (geometric mean, range); type: cell-based; settings: geometric mean of the MICs against Gram-positive bacteria tested
Method: (§1) The antimicrobial efficacy of the TLcyc analogues was assessed against a representative panel of Gram-positive and Gram-negative bacterial strains, by determining their minimal inhibitory concentrations (MIC), as summarized in Table . To provide an integrated measure of antimicrobial potency, we calculated the geometric mean (GM) of MIC values across all strains (GMall), as well as separately for Gram-positive (GMGram+) and Gram-negative (GMGram–) bacteria.
(§2) Bacterial strains used in this study were the Gram-positive S. aureus ATCC 25923, S. epidermidis ATCC 12228, B. megaterium BM11, S. agalactiae ATCC 27591, E. faecalis ATCC 29212 and the Gram-negative E. coli ATCC 25922, P. aeruginosa ATCC 27853, A. baumannii ATCC 19606, E. coli D21 and P. aeruginosa PAO1. […] Bacterial cells in the mid log phase were diluted in Muller Hinton (MH) at a concentration of 2 × 10^6 cell/mL. Aliquots of 50 μL of this bacterial suspension were added to 50 μL of MH containing serial 2-fold dilutions of the peptides (from 100 to 0.19 μM) in the wells a 96-well plate. Ciprofloxacin was used as antibiotic control. The plate was then incubated at 37 °C. MICs were obtained from three identical readings of four independent experiments.

[2] = tested on: Gram-negative bacteria tested; experiment: MIC panel, Gram-negative strains (geometric mean); type: cell-based; settings: geometric mean of the MICs against Gram-negative bacteria tested
Method: as §1, §2

all bacteria tested = experiment: MIC panel, geometric mean over all strains; type: cell-based; settings: geometric mean of the MICs against all bacteria tested
Method: as §1, §2

circular dichroism = settings: water; pH ns; 25 °C; 150 uM
[3] = Circular dichroism in water (BeStSel); type: physicochemical; settings: predicted from CD spectra in H2O using BeStSel
Method: The secondary structure of each peptide was studied in solution and in small unilamellar vesicles (SUVs) mimicking Gram-positive and Gram-negative membranes performing CD analysis. The CD spectrum for each peptide in solution was recorded at 150 μM, using the quartz cells of 0.1 cm path length with a Jasco J-1500 CD Spectrometer at 25 °C. SUVs at the concentration of 150 μM (P/L = 1) and […] (P/L = 0.4) were prepared as reported: the lipid film was hydrated with water for 1h and then sonicated for 30 min. CD spectra were recorded at the peptide/lipid ratio of 1:1 both in the presence with SUVs mimicking Gram-positive and Gram-negative membranes. CD spectra were recorded at 25 °C on a in a 0.1 cm quartz cell using three consecutive scans from 260 to 190 nm, 3 nm bandwidth, a time constant of 16 s, and a scan rate of 10 nm/min.

[4] = type: cell-based, human; settings: human
Method: (§3) For the evaluation of peptides’ cytotoxicity, the human immortalized keratinocytes (HaCaT cells), purchased from AddexBio (San Diego, CA, USA), and BEAS-2B were used. HaCaT cells were cultured in Dulbecco’s modified Eagle’s medium supplemented with 4 mM glutamine (DMEM), 10% heat-inactivated fetal bovine serum (FBS), and 0.1 mg/mL of penicillin and streptomycin, at 37 °C and 5% CO2. BEAS-2B cells were cultured in RPMI, supplemented with 2 mM glutamine (DMEM), 10% heat-inactivated fetal bovine serum (FBS), 1 mM sodium pyruvate, and 0.1 mg/mL of penicillin and streptomycin, at 37 °C and 5% CO2. Cytotoxicity was tested in vitro using a colorimetric assay that relies on the intracellular reduction of the yellow 3-(4,5-dimethylthiazol-2-yl)-2,5-diphenyltetrazolium bromide salt (MTT) by mitochondrial dehydrogenases of metabolically active cells in formazan crystals (purple). About 4 × 10^4 HaCaT and BEAS-2B cells, suspended in DMEM supplemented with 2% FBS, were plated in triplicate wells of a 96-well microtiter plate. The plate was incubated overnight at 37 °C and 5% CO2. Then, the cells were treated with different concentrations of the peptide (from 100 to 3.12 μM) in a fresh serum-free medium for 2 h and for a longer time (24 h). Following peptide treatment, the medium was removed, and MTT (0.5 mg/mL) solution in Hank’s buffer (136 mM NaCl, 4.2 mM Na2HPO4, 4.4 mM KH2PO4, 5.4 mM KCl, 4.1 mM NaHCO3, pH 7.2, supplemented with 20 mM D-glucose) was added to each well of the plate, that was then incubated for 4 h at 37 °C and 5% CO2. The purple formazan crystals were dissolved using acidified 2-propanol and a microplate reader (Infinite M200; Tecan, Salzburg, Austria) was used to measure the absorbance of each well at 570 nm. The percentage of cell viability was calculated compared to the control, which consisted of cells without any peptide treatment (corresponding to 100% viability) and all data represent the mean of three independent experiments ± SEM.

[5] = tested on: human keratinocytes (HaCaT cells); type: cell-based; settings: human, 24 h
Method: as §3

B. megaterium BM11 = experiment: microbe, parasite or virus in culture; type: cell-based; settings: BM11
Method: as §2, with “[NT]” for “agalactiae ATCC”, “Aliquots of 50 μL of this bacterial suspension were added to 50 μL of MH containing serial 2-fold dilutions of the peptides (from 100 to 0.19 μM) in the wells a 96-well plate.” left out

S. aureus ATCC 25923 = experiment: microbe, parasite or virus in culture; type: cell-based; settings: ATCC 25923
Method: as §2, with “[NT]” for “agalactiae ATCC”, “Aliquots of 50 μL of this bacterial suspension were added to 50 μL of MH containing serial 2-fold dilutions of the peptides (from 100 to 0.19 μM) in the wells a 96-well plate.” left out

P. aeruginosa PAO1 = experiment: microbe, parasite or virus in culture; type: cell-based; settings: PAO1
Method: as §2, with “[NT]” for “agalactiae ATCC”, “Aliquots of 50 μL of this bacterial suspension were added to 50 μL of MH containing serial 2-fold dilutions of the peptides (from 100 to 0.19 μM) in the wells a 96-well plate.” left out

[6] = tested on: S. epidermidis ATCC 12228; experiment: microbe, parasite or virus in culture; type: cell-based; settings: ATCC 12228
Method: as §2, with “[NT]” for “agalactiae ATCC”, “Aliquots of 50 μL of this bacterial suspension were added to 50 μL of MH containing serial 2-fold dilutions of the peptides (from 100 to 0.19 μM) in the wells a 96-well plate.” left out

S. agalactiae ATCC 27591 = experiment: microbe, parasite or virus in culture; type: cell-based; settings: ATCC 27591
Method: as §2, with “[NT]” for “agalactiae ATCC”, “Aliquots of 50 μL of this bacterial suspension were added to 50 μL of MH containing serial 2-fold dilutions of the peptides (from 100 to 0.19 μM) in the wells a 96-well plate.” left out

E. coli D21 = experiment: microbe, parasite or virus in culture; type: cell-based; settings: D21
Method: as §2, with “[NT]” for “agalactiae ATCC”, “Aliquots of 50 μL of this bacterial suspension were added to 50 μL of MH containing serial 2-fold dilutions of the peptides (from 100 to 0.19 μM) in the wells a 96-well plate.” left out

E. faecalis ATCC 29212 = experiment: microbe, parasite or virus in culture; type: cell-based; settings: ATCC 29212
Method: as §2, with “[NT]” for “agalactiae ATCC”, “Aliquots of 50 μL of this bacterial suspension were added to 50 μL of MH containing serial 2-fold dilutions of the peptides (from 100 to 0.19 μM) in the wells a 96-well plate.” left out

A. baumannii ATCC 19606 = experiment: microbe, parasite or virus in culture; type: cell-based; settings: ATCC 19606
Method: as §2, with “[NT]” for “agalactiae ATCC”, “Aliquots of 50 μL of this bacterial suspension were added to 50 μL of MH containing serial 2-fold dilutions of the peptides (from 100 to 0.19 μM) in the wells a 96-well plate.” left out

E. coli ATCC 25922 = experiment: microbe, parasite or virus in culture; type: cell-based; settings: ATCC 25922
Method: as §2, with “[NT]” for “agalactiae ATCC”, “Aliquots of 50 μL of this bacterial suspension were added to 50 μL of MH containing serial 2-fold dilutions of the peptides (from 100 to 0.19 μM) in the wells a 96-well plate.” left out

[7] = background value; cited from earlier work
[8] = tested on: methicillin-resistant Staphylococcus aureus (MRSA); settings: MRSA strain; ref Verma et al.; cited from earlier work
[9] = biological target: the molecule itself; experiment: Thioflavin T fluorescence; LUVs of DOPE:DOPG:CL (65:23:12, mol/mol/mol) mimicking the Gram-negative membrane, 100 uM lipid, titrated with 5-50 uM peptide; 100 mM NaCl, 10 mM Tris-HCl, 25 uM ThT, pH 7.4; peptide oligomerisation within the vesicles

CC[C@H](C)[C@H](NC(=O)[C@H](CCCNC(=N)N)NC(=O)[C@H]1CCC(=O)NCCCC[C@H](NC(=O)[C@H](Cc2ccccc2)NC(=O)[C@H](Cc2c[nH]c3ccccc23)NC(=O)[C@@H]2CCCN2C(=O)[C@@H](NC(=O)[C@@H](N)Cc2ccccc2)C(C)C)C(=O)N[C@@H](CCCNC(=N)N)C(=O)N[C@@H](Cc2ccccc2)C(=O)N[C@H](CC(C)C)C(=O)N1)C(=O)N[C@@H](CC(C)C)C(N)=O [Peptide 9, FVPWF[KRFle]RIL] (H-FVPWFKRF[dL][dE]RIL-NH2; lactam 6-10)
geometric mean GMGram+ [1]: 4.11 µM
geometric mean GMGram– [2]: 14.32 µM
geometric mean GMall (all bacteria tested): 7.67 µM
helicity (circular dichroism): 11%
Content in water (%) random [3]: 53%
Content in water (%) α-helix [3]: 11%
Content in water (%) β-strand [3]: 36%
CC50 at 24 h ([4]; CC50): > 50 µM
viability at 2 h, 3.12 µM ([4]; Cell viability (%)): 106%
viability at 2 h, 6.25 µM ([4]; Cell viability (%)): 106%
viability at 2 h, 12.5 µM ([4]; Cell viability (%)): 98%
viability at 2 h, 25 µM ([4]; Cell viability (%)): 94%
viability at 2 h, 50 µM ([4]; Cell viability (%)): 74%
viability at 2 h, 100 µM ([4]; Cell viability (%)): 22%
viability at 24 h, 3.12 µM ([4]; Cell viability (%)): 115 ± 23%
viability at 24 h, 6.25 µM ([4]; Cell viability (%)): 109 ± 24%
viability at 24 h, 12.5 µM ([4]; Cell viability (%)): 112 ± 20%
viability at 24 h, 25 µM ([4]; Cell viability (%)): 120 ± 13%
viability at 24 h, 50 µM ([4]; Cell viability (%)): 82 ± 10%
viability at 24 h, 100 µM ([4]; Cell viability (%)): 4 ± 2%
CC50 [5]: 54.3 µM
MIC (B. megaterium BM11): 1.56 µM (≈ 2.7 µg/mL)
MIC (S. aureus ATCC 25923): 6.25 µM (≈ 10.8 µg/mL)
MIC (P. aeruginosa PAO1): 50 µM (≈ 86.6 µg/mL)
MIC [6]: 3.12 µM (≈ 5.4 µg/mL)
MIC (S. agalactiae ATCC 27591): 3.12 µM (≈ 5.4 µg/mL)
MIC (E. coli D21): 6.25 µM (≈ 10.8 µg/mL)
MIC (E. faecalis ATCC 29212): 12.5 µM (≈ 21.7 µg/mL)
MIC (A. baumannii ATCC 19606): 3.12 µM (≈ 5.4 µg/mL)
MIC (E. coli ATCC 25922): 6.25 µM (≈ 10.8 µg/mL)

N=C(N)NCCC[C@H](N)C(=O)O [arginine]
pK a1 [7]: 2.18
pK a2 [7]: 9.09
pK a3 [7]: 13.20

NCCCC[C@H](N)C(=O)O [lysine]
pK a [7]: 10.94

FVQWFSKFLGRIL [TL, 13-mer linear antimicrobial peptide from Rana temporaria]
MIC [8]: 6.25 µM

B1: peptide 6 (cyclic Temporin L analogue with a guanidino pendant on the para position of Phe1) (peptide, UniProt P57104 1-13, looked up)
peptide: [Phe(4-guanidino)]VPWFKKF[dL][dE]RIL-NH2
modifications: lactam 6-10; N-terminus assumed
SMILES: CC[C@H](C)[C@H](NC(=O)[C@H](CCCNC(=N)N)NC(=O)[C@H]1CCC(=O)NCCCC[C@H](NC(=O)[C@H](Cc2ccccc2)NC(=O)[C@H](Cc2c[nH]c3ccccc23)NC(=O)[C@@H]2CCCN2C(=O)[C@@H](NC(=O)[C@@H](N)Cc2ccc(NC(=N)N)cc2)C(C)C)C(=O)N[C@@H](CCCCN)C(=O)N[C@@H](Cc2ccccc2)C(=O)N[C@H](CC(C)C)C(=O)N1)C(=O)N[C@@H](CC(C)C)C(N)=O
notes: peptide 6 is peptide 2 with (p-guanidino)Phe in place of Phe1; also called compound 6; source: synthetic peptide (Fmoc-based US-SPPS, RP-HPLC purified, >97%)
% aggregation at P/L 0.5 [9]: ~40%

B2: peptide 2 (cyclic Temporin L analogue; TLcyc with D-Glu at position 10) (peptide, UniProt P57104 1-13, looked up)
peptide: FVPWFKKF[dL][dE]RIL-NH2
modifications: lactam 6-10
notes: peptide 2 is the [Pro3,DLeu9]TL frame cyclised between positions 6 (Lys) and 10 (D-Glu); Free N-terminal amine; also called compound 2; source: synthetic peptide (Fmoc-based US-SPPS, RP-HPLC purified, >97%)
% aggregation at P/L 0.5 [9]: ~60%

B3: peptide 7 (cyclic Temporin L analogue with a guanidino pendant at position 4 of the Pro3 ring) (peptide, UniProt P57104 1-13, looked up)
peptide: FV[Pro(4-guanidino)]WFKKF[dL][dE]RIL-NH2
modifications: lactam 6-10
notes: peptide 7 is peptide 2 with (4-guanidino)Pro in place of Pro3; also called compound 7; source: synthetic peptide (Fmoc-based US-SPPS, RP-HPLC purified, >97%)
% aggregation at P/L 0.5 [9]: ~60%
